Laboratory results published in patent US7906491B2 (Univisitair Medisch Centrum Utrecht, priority 2002, dated 2011).

What was measured:
PKAI = test: Relative affinity for PKAI (cAMP = 1), in vitro; type: binding; conditions: relative to cAMP = 1
[1] = tested on: type II holoenzyme of PKA (PKAII); test: In vitro activation of cAMP-dependent protein kinase, type II holoenzyme (kemptide substrate); type: biochemical; conditions: compared to cAMP, FIG. 5
Protocol: (§1) Cyclic AMP dependent protein kinase I and II were reconstituted from isolated subunits and assayed for kinase activity using […] kemptide as substrate, as described previously (15).

human pancreatic β-cells = conditions: cited from earlier work
[2] = tested on: extracellular signal-regulated kinase (ERK); test: ERK activation / inactivation in vivo (cells); type: cell-based
Ovcar3 cells = test: Adhesion assay of Ovcar3 cells to fibronectin; type: cell-based
Protocol: A: 8-pCPT-2′-O-Me-cAMP stimulates cell adhesion. Upper panel: quantification of Ovcar3 cells adhering to fibronectin after treatment with increasing concentrations of 8-pCPT-2′-O-Me-cAMP. Lower panel: Ovcar3 cells were treated with increasing concentrations of 8-pCPT-2′-O-Me-cAMP for 15 min, cells were lysed and analyzed for activation of Rap1 (upper blot) and CREB (lower blot). Total Rap1 levels are shown (middle blot). B: 8-pCPT-2′-O-Me-cAMP increases the rate of cell adhesion. Upper panel: quantification of Ovcar3 cells adhering to fibronectin at various time points. Lower panel: cells were treated with 60 μM 8-pCPT-2′-O-Me-cAMP for the indicated times. Cell lysates were analyzed for activation of Rap1 (upper blot) and CREB (lower blot). Total levels of Rap1 in cell lysates are shown (middle blot). C: Ovcar3 cells were either pre-incubated at 37° C. for 30 min with the PKA inhibitor H-89 (10 μM) 30 min prior to seeding onto the wells (‘Short’) or H-89 was added 30 min prior to trypsinization and during the recovery period (‘Long’) and seeded onto wells in the absence or presence of 8-pCPT-2′-O-Me-cAMP (100 μM). Cells were allowed to adhere for 1 h. D, cAMP-induced adhesion to fibronectin is blocked by inhibitors of Rap1. Left panel: Ovcar3 cells were transiently transfected with either mock DNA, increasing concentrations of HA-Rap1GAP II (0.5, 1, 2 or 6 μg, respectively), HA-Rap1GAPI (6 μg) or HA-RBD of RalGDS (6 μg), respectively. Cells were treated with 8-Br-cAMP or 8-pCPT-2′-O-Me-cAMP and adhesion to fibronectin was determined. […]
In functional assays, 8-pCPT-2′-O-Me-cAMP appeared to induce integrin-mediated cell adhesion through Epac and Rap1. […] The cells were seeded onto fibronectin-coated plates in the presence or absence of 8-pCPT-2′-O-Me-cAMP and the amount of cells that adhered after a certain period of time was quantified. […]
24-well plates were coated overnight with 2 μg/ml fibronectin (Sigma, St. Louis, Mo., USA) in sodium bicarbonate buffer (Sigma, St. Louis, Mo., USA). […] Cells were centrifuged, counted and resuspended at 3×10^5 cells/ml in serum-free RPMI with 0.5% BSA. […]

PKAII = test: Relative affinity for PKAII (cAMP = 1), in vitro; type: binding; conditions: relative to cAMP = 1
[3] = tested on: INS-1 insulin-secreting cells; conditions: cited from earlier work
[4] = tested on: type I holoenzyme of PKA (PKAI); test: In vitro activation of cAMP-dependent protein kinase, type I holoenzyme (kemptide substrate); type: biochemical; conditions: compared to cAMP, FIG. 5
Protocol: as §1

- ability to activate the type II holoenzyme of PKA [1]: greatly impaired
- EC50 (Ovcar3 cells; Homo sapiens, OVCAR-3, FIG. 7A, read-out: EC50 of enhanced cell adhesion to fibronectin): ~30 µM
- ability to activate the type I holoenzyme of PKA [4]: greatly impaired
Structure (SMILES): CO[C@@H]1[C@@H]2OP(=O)(O)OC[C@H]2O[C@H]1n1c(Sc2ccc(Cl)cc2)nc2c(N)ncnc21 [Compound I-007, 8-(4-chloro-phenylthio)-2′-O-methyladenosine-3′,5′-cyclic monophosphate]
- Relative affinity CAMP = 1 PKAI (PKAI): 0.009
- exocytosis (human pancreatic β-cells): induces exocytosis
- mobilization of Ca2+ from intracellular Ca2+ stores via Epac-mediated CICR (human pancreatic β-cells): can induce mobilization of Ca^2+
- activation and inactivation of ERK [2]: affected neither the activation nor the inactivation
- time after which increased adhesion was already observed (Ovcar3 cells; fibronectin, time-course, FIG. 7B): 30 min
- Relative affinity CAMP = 1 PKAII (PKAII): 0.003
- exocytosis [3]: induces exocytosis
- mobilization of Ca2+ from intracellular Ca2+ stores via Epac-mediated CICR [3]: can induce mobilization of Ca^2+
